{"source": "PubChem BioAssay (NCI)", "test_in_all_cases": "DTP human tumour cell line panel, 48 h", "key": {"SNB-75 CNS": {"tested_on": "SNB-75 CNS"}, "COLO 205 colon": {"tested_on": "COLO 205 colon"}, "RXF 393 renal": {"tested_on": "RXF 393 renal"}, "DU-145 prostate": {"tested_on": "DU-145 prostate"}, "SN12C renal": {"tested_on": "SN12C renal"}, "LOX IMVI melanoma": {"tested_on": "LOX IMVI melanoma"}, "MOLT-4 leukemia": {"tested_on": "MOLT-4 leukemia"}, "MDA-N": {"tested_on": "MDA-N"}, "SK-MEL-5 melanoma": {"tested_on": "SK-MEL-5 melanoma"}, "OVCAR-3 ovarian": {"tested_on": "OVCAR-3 ovarian"}, "NCI-H522 lung": {"tested_on": "NCI-H522 lung"}, "UACC-257 melanoma": {"tested_on": "UACC-257 melanoma"}, "SF-295 CNS": {"tested_on": "SF-295 CNS"}, "NCI-H460 lung": {"tested_on": "NCI-H460 lung"}, "IGROV1 ovarian": {"tested_on": "IGROV1 ovarian"}, "M14 melanoma": {"tested_on": "M14 melanoma"}, "CCRF-CEM leukemia": {"tested_on": "CCRF-CEM leukemia"}, "UO-31 renal": {"tested_on": "UO-31 renal"}, "T-47D breast": {"tested_on": "T-47D breast"}, "SF-539 CNS": {"tested_on": "SF-539 CNS"}, "BT-549 breast": {"tested_on": "BT-549 breast"}, "U251 CNS": {"tested_on": "U251 CNS"}, "HL-60(TB) leukemia": {"tested_on": "HL-60(TB) leukemia"}, "A549 NSCLC": {"tested_on": "A549 NSCLC"}, "K-562 leukemia": {"tested_on": "K-562 leukemia"}, "SK-OV-3 ovarian": {"tested_on": "SK-OV-3 ovarian"}, "KM12 colon": {"tested_on": "KM12 colon"}, "PC-3 prostate": {"tested_on": "PC-3 prostate"}, "HOP-62 NSCLC": {"tested_on": "HOP-62 NSCLC"}, "MCF7 breast": {"tested_on": "MCF7 breast"}, "NCI/ADR-RES ovarian": {"tested_on": "NCI/ADR-RES ovarian"}, "CAKI-1 renal": {"tested_on": "CAKI-1 renal"}, "MALME-3M melanoma": {"tested_on": "MALME-3M melanoma"}, "MDA-MB-435": {"tested_on": "MDA-MB-435"}, "HCT-116 colon": {"tested_on": "HCT-116 colon"}, "MDA-MB-231 breast": {"tested_on": "MDA-MB-231 breast"}, "HCT-15 colon": {"tested_on": "HCT-15 colon"}, "786-0 renal": {"tested_on": "786-0 renal"}, "UACC-62 melanoma": {"tested_on": "UACC-62 melanoma"}, "NCI-H226 lung": {"tested_on": "NCI-H226 lung"}, "A498 renal": {"tested_on": "A498 renal"}, "RPMI-8226 leukemia": {"tested_on": "RPMI-8226 leukemia"}, "ACHN renal": {"tested_on": "ACHN renal"}, "NCI-H23 lung": {"tested_on": "NCI-H23 lung"}, "HT29 colon": {"tested_on": "HT29 colon"}, "HS 578T breast": {"tested_on": "HS 578T breast"}, "TK-10 renal": {"tested_on": "TK-10 renal"}, "SK-MEL-28 melanoma": {"tested_on": "SK-MEL-28 melanoma"}, "SK-MEL-2 melanoma": {"tested_on": "SK-MEL-2 melanoma"}, "SW-620 colon": {"tested_on": "SW-620 colon"}, "OVCAR-8 ovarian": {"tested_on": "OVCAR-8 ovarian"}, "SNB-19 CNS": {"tested_on": "SNB-19 CNS"}, "OVCAR-5 ovarian": {"tested_on": "OVCAR-5 ovarian"}, "SF-268 CNS": {"tested_on": "SF-268 CNS"}}, "note": "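Briefly, cells in 96-well plates were exposed to five compound concentrations for 48 h, and endpoints were estimated by linear interpolation. TGI marks complete inhibition of growth.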"}
{"smiles": "CN1CN(c2ccccc2)C2(CCN(CCCN(C)c3ccc(F)cc3)CC2)C1=O", "values": [{"measurement": "TGI", "setting": "SNB-75 CNS", "result": 40, "unit": "µM"}, {"measurement": "TGI", "setting": "COLO 205 colon", "result": 24.1, "unit": "µM"}, {"measurement": "TGI", "setting": "RXF 393 renal", "result": 46.2, "unit": "µM"}, {"measurement": "TGI", "setting": "DU-145 prostate", "result": 76.1, "unit": "µM"}, {"measurement": "TGI", "setting": "SN12C renal", "result": 66.4, "unit": "µM"}, {"measurement": "TGI", "setting": "LOX IMVI melanoma", "result": 31, "unit": "µM"}, {"measurement": "TGI", "setting": "MOLT-4 leukemia", "result": 54.7, "unit": "µM"}, {"measurement": "TGI", "setting": "MDA-N", "result": 30.7, "unit": "µM"}, {"measurement": "TGI", "setting": "SK-MEL-5 melanoma", "result": 29.8, "unit": "µM"}, {"measurement": "TGI", "setting": "OVCAR-3 ovarian", "result": 31.7, "unit": "µM"}, {"measurement": "TGI", "setting": "NCI-H522 lung", "result": 27.4, "unit": "µM"}, {"measurement": "TGI", "setting": "UACC-257 melanoma", "result": 33.6, "unit": "µM"}, {"measurement": "TGI", "setting": "SF-295 CNS", "result": 28.3, "unit": "µM"}, {"measurement": "TGI", "setting": "NCI-H460 lung", "result": 32.9, "unit": "µM"}, {"measurement": "TGI", "setting": "IGROV1 ovarian", "result": 34.6, "unit": "µM"}, {"measurement": "TGI", "setting": "M14 melanoma", "result": 30.7, "unit": "µM"}, {"measurement": "TGI", "setting": "CCRF-CEM leukemia", "result": 62.1, "unit": "µM"}, {"measurement": "TGI", "setting": "UO-31 renal", "result": 40.3, "unit": "µM"}, {"measurement": "TGI", "setting": "T-47D breast", "result": 41.7, "unit": "µM"}, {"measurement": "TGI", "setting": "SF-539 CNS", "result": 39.7, "unit": "µM"}, {"measurement": "TGI", "setting": "BT-549 breast", "result": 31.1, "unit": "µM"}, {"measurement": "TGI", "setting": "U251 CNS", "result": 33.3, "unit": "µM"}, {"measurement": "TGI", "setting": "HL-60(TB) leukemia", "result": 26.2, "unit": "µM"}, {"measurement": "TGI", "setting": "A549 NSCLC", "result": 65.9, "unit": "µM"}, {"measurement": "TGI", "setting": "K-562 leukemia", "result": 30.1, "unit": "µM"}, {"measurement": "TGI", "setting": "SK-OV-3 ovarian", "result": 42.3, "unit": "µM"}, {"measurement": "TGI", "setting": "KM12 colon", "result": 31.3, "unit": "µM"}, {"measurement": "TGI", "setting": "PC-3 prostate", "result": 63.8, "unit": "µM"}, {"measurement": "TGI", "setting": "HOP-62 NSCLC", "result": 32.1, "unit": "µM"}, {"measurement": "TGI", "setting": "MCF7 breast", "result": 29.2, "unit": "µM"}, {"measurement": "TGI", "setting": "NCI/ADR-RES ovarian", "result": 51.3, "unit": "µM"}, {"measurement": "TGI", "setting": "CAKI-1 renal", "result": 86.4, "unit": "µM"}, {"measurement": "TGI", "setting": "MALME-3M melanoma", "result": 38.1, "unit": "µM"}, {"measurement": "TGI", "setting": "MDA-MB-435", "result": 37.4, "unit": "µM"}, {"measurement": "TGI", "setting": "HCT-116 colon", "result": 25.4, "unit": "µM"}, {"measurement": "TGI", "setting": "MDA-MB-231 breast", "result": 28.3, "unit": "µM"}, {"measurement": "TGI", "setting": "HCT-15 colon", "result": 50.1, "unit": "µM"}, {"measurement": "TGI", "setting": "786-0 renal", "result": 42.2, "unit": "µM"}, {"measurement": "TGI", "setting": "UACC-62 melanoma", "result": 36.5, "unit": "µM"}, {"measurement": "TGI", "setting": "NCI-H226 lung", "result": 45.1, "unit": "µM"}, {"measurement": "TGI", "setting": "A498 renal", "result": 72.6, "unit": "µM"}, {"measurement": "TGI", "setting": "RPMI-8226 leukemia", "result": 80.4, "unit": "µM"}, {"measurement": "TGI", "setting": "ACHN renal", "result": 53.2, "unit": "µM"}, {"measurement": "TGI", "setting": "NCI-H23 lung", "result": 44.1, "unit": "µM"}, {"measurement": "TGI", "setting": "HT29 colon", "result": 22.6, "unit": "µM"}, {"measurement": "TGI", "setting": "HS 578T breast", "result": 42.8, "unit": "µM"}, {"measurement": "TGI", "setting": "TK-10 renal", "result": 44.9, "unit": "µM"}, {"measurement": "TGI", "setting": "SK-MEL-28 melanoma", "result": 37.9, "unit": "µM"}, {"measurement": "TGI", "setting": "SK-MEL-2 melanoma", "result": 33.5, "unit": "µM"}, {"measurement": "TGI", "setting": "SW-620 colon", "result": 36.2, "unit": "µM"}, {"measurement": "TGI", "setting": "OVCAR-8 ovarian", "result": 45.2, "unit": "µM"}, {"measurement": "TGI", "setting": "SNB-19 CNS", "result": 56.5, "unit": "µM"}, {"measurement": "TGI", "setting": "OVCAR-5 ovarian", "result": 41.8, "unit": "µM"}, {"measurement": "TGI", "setting": "SF-268 CNS", "result": 54.6, "unit": "µM"}]}
